# ChEMBL document CHEMBL5131422, “Neuroprotective evaluation of novel substituted 1,3,4-oxadiazole and aroylhydrazone derivatives” (Bioorg Med Chem Lett, 2022)
# Tests used:
# [1] = Toxicity in rat brain synaptosomes assessed as reduction in cell viability at 40 uM measured after 1 hr by MTT assay relative to control; assay type: subcellular, Synaptosome
# [2] = target: T1, Amine oxidase [flavin-containing] A (Homo sapiens, UniProt P21397); experiment: Inhibition of MAOA (unknown origin)
# T1 sequence (P21397 whole entry): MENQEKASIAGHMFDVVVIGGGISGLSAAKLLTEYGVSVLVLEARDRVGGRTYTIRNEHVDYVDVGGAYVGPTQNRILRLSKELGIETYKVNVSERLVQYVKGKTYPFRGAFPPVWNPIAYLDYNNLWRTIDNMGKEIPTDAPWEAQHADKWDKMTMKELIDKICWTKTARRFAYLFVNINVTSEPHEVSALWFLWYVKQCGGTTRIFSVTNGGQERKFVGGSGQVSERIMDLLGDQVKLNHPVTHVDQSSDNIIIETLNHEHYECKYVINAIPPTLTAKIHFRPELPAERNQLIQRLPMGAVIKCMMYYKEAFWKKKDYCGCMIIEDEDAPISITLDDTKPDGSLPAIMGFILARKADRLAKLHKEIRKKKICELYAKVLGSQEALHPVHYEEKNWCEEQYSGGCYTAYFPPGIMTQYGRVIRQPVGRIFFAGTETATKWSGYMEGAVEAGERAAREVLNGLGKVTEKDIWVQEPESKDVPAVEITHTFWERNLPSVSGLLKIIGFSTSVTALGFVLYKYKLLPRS
# Brain [3] = experiment: Neuroprotective activity against 6-OHDA-induced oxidative stress in rat brain synaptosomes assessed as cell viability at 40 uM by MTT assay relative to control; assay type: functional, subcellular; conditions: Synaptosome
# Brain [4] = experiment: Neuroprotective activity against 6-OHDA-induced oxidative stress in rat brain synaptosomes assessed as GSH level at 40 uM relative to control; assay type: functional, subcellular; conditions: Synaptosome
# [5] = Toxicity in rat brain synaptosomes assessed as effect on reduced glutathione level at 40 uM measured after 1 hr relative to control; assay type: subcellular, Synaptosome; conditions: in vitro
smiles,measurement,setting,value
c1ccc(-c2nnc(-c3c[nH]c4ccccc34)o2)cc1,Activity,[1],Non-Toxic
same,inhibition (INH),[2],Active
same,Activity,Brain [3],56%
same,Activity,Brain [4],70%
same,Activity,[5],Non-Toxic
COc1ccc2[nH]cc(/C=N\NC(=O)c3ccoc3)c2c1,Activity,[1],20%
same,Activity,Brain [3],67%
same,Activity,Brain [4],70%
same,Activity,[5],25%
COc1ccc2[nH]cc(/C=N\NC(=O)c3ccc(Cl)cc3)c2c1,Activity,[1],20%
same,Activity,Brain [3],67%
same,Activity,Brain [4],60%
same,Activity,[5],25%
Clc1ccc(-c2nnc(-c3ccccc3)o2)cc1,Activity,[1],Non-Toxic
same,inhibition (INH),[2],Active
same,Activity,Brain [3],66%
same,Activity,Brain [4],60%
same,Activity,[5],Non-Toxic
COc1ccc(C(=O)N/N=C/c2ccc(Cl)cc2Cl)cc1O,Activity,[1],20%
same,Activity,Brain [3],56%
same,Activity,Brain [4],70%
same,Activity,[5],25%
COc1ccc2[nH]cc(/C=N\NC(=O)c3snnc3C)c2c1,Activity,[1],15%
same,Activity,Brain [3],67%
same,Activity,Brain [4],60%
same,Activity,[5],25%
COc1ccc2[nH]cc(/C=N\NC(=O)Cc3c[nH]c4ccccc34)c2c1,Activity,[1],20%
same,Activity,Brain [3],56%
same,Activity,Brain [4],60%
same,Activity,[5],25%
COc1ccc2[nH]cc(/C=N\NC(=O)c3c[nH]c4ccccc34)c2c1,Activity,[1],20%
same,Activity,Brain [3],56%
same,Activity,Brain [4],70%
same,Activity,[5],25%
COc1ccc(C(=O)N/N=C/c2ccc(Cl)cc2Cl)cc1OC,Activity,[1],20%
same,Activity,Brain [3],56%
same,Activity,Brain [4],70%
same,Activity,[5],25%
